# In ChEMBL document CHEMBL1201862, “PubChem BioAssay data set” (2004):
#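 Test compounds were applied to cells in 96-well plates for 48 hours at 5 doses. Abbreviation: GI50, concentration required for 50% inhibition of growth.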 Activity calls are given as the source filed them. Cut-off read from the data, not from the text of the source: active = GI50 up to about 1.1 µM and inactive = higher.
# Tests used:
# Assay in all cases: NCI anticancer screen, dose series, 48 h
# A498 = test system: A498
# A549 = test system: A549
# BT-549 = test system: BT-549
# DU-145 = test system: DU-145
# EKVX = test system: EKVX
# HCC 2998 = test system: HCC 2998
# HOP-92 = test system: HOP-92
# HT-29 = test system: HT-29
# K562 = test system: K562
# KM12 = test system: KM12
# MDA-MB-231 = test system: MDA-MB-231
# NCI-H460 = test system: NCI-H460
# OVCAR-4 = test system: OVCAR-4
# PC-3 = test system: PC-3
# RPMI-8226 = test system: RPMI-8226
# RXF 393 = test system: RXF 393
# SK-MEL-2 = test system: SK-MEL-2
# SK-MEL-5 = test system: SK-MEL-5
# UACC-62 = test system: UACC-62
# UO-31 = test system: UO-31
SMILES,GI50 (A498),GI50 (A549),GI50 (BT-549),GI50 (DU-145),GI50 (EKVX),GI50 (HCC 2998),GI50 (HOP-92),GI50 (HT-29),GI50 (K562),GI50 (KM12),GI50 (MDA-MB-231),GI50 (NCI-H460),GI50 (OVCAR-4),GI50 (PC-3),GI50 (RPMI-8226),GI50 (RXF 393),GI50 (SK-MEL-2),GI50 (SK-MEL-5),GI50 (UACC-62),GI50 (UO-31)
CCC(=O)OCOc1ccc(/C=C2\CCC(CN(C)C)C2=O)cc1 (stereo not given),15.9 µM (inactive),18.3 µM (inactive),2.05 µM (inactive),10.8 µM (inactive),14 µM (inactive),5.96 µM (inactive),11 µM (inactive),6.31 µM (inactive),1.85 µM (inactive),3.9 µM (inactive),3.67 µM (inactive),15.9 µM (inactive),4.09 µM (inactive),14.2 µM (inactive),2.43 µM (inactive),3.44 µM (inactive),11 µM (inactive),11.7 µM (inactive),4.1 µM (inactive),7.8 µM (inactive)
COc1cc(-c2cc(O)c(-c3ccc4ccccc4n3)c(O)n2)cc(OC)c1OC,> 61 µM (inactive),53.7 µM (inactive),80.4 µM (inactive),44.9 µM (inactive),> 52 µM (inactive),> 60.3 µM (inactive),26.2 µM (inactive),18.6 µM (inactive),3.31 µM (inactive),14.8 µM (inactive),36.6 µM (inactive),31 µM (inactive),> 38.5 µM (inactive),44.3 µM (inactive),> 50 µM (inactive),39.9 µM (inactive),32.2 µM (inactive),15.1 µM (inactive),15.2 µM (inactive),68.7 µM (inactive)
Cc1ccc2nc(N/N=C/c3cccc(C)n3)cc(C)c2c1,17.9 µM (inactive),16 µM (inactive),18.8 µM (inactive),17.3 µM (inactive),16.6 µM (inactive),12.6 µM (inactive),17.6 µM (inactive),12.3 µM (inactive),45 µM (inactive),12.7 µM (inactive),18.6 µM (inactive),6.89 µM (inactive),16.6 µM (inactive),17.7 µM (inactive),14 µM (inactive),16.5 µM (inactive),18.8 µM (inactive),17.2 µM (inactive),15.2 µM (inactive),19.7 µM (inactive)
CCCCCCCCCC(=O)NCCc1c[nH]c2ccc(OC)cc12,16.3 µM (inactive),19 µM (inactive),18.6 µM (inactive),20.2 µM (inactive),28 µM (inactive),19.5 µM (inactive),16.2 µM (inactive),23.2 µM (inactive),55 µM (inactive),27.9 µM (inactive),15.1 µM (inactive),23.3 µM (inactive),> 100 µM (inactive),15.3 µM (inactive),21.1 µM (inactive),19 µM (inactive),16.1 µM (inactive),18.5 µM (inactive),16.3 µM (inactive),12.7 µM (inactive)
O=C1N/C(=N\N=C\c2ccccc2)C2(CCCCC2)O1,> 100 µM (inactive),54.5 µM (inactive),> 100 µM (inactive),> 100 µM (inactive),> 100 µM (inactive),87.3 µM (inactive),> 100 µM (inactive),78 µM (inactive),35 µM (inactive),> 100 µM (inactive),> 100 µM (inactive),45 µM (inactive),> 100 µM (inactive),80.4 µM (inactive),53.5 µM (inactive),> 100 µM (inactive),> 100 µM (inactive),55.8 µM (inactive),> 100 µM (inactive),43.1 µM (inactive)
CN(C)c1ccc(/C=C2\C[C@H]3[C@@H]4CC=C5C[C@@H](N6CCCC6)CC[C@]5(C)[C@H]4CC[C@]3(C)[C@H]2O)cc1,1.01 µM (active),1.36 µM (inactive),3.18 µM (inactive),3.05 µM (inactive),1.83 µM (inactive),0.91 µM (active),2.47 µM (inactive),1.1 µM (active),1.21 µM (inactive),2.24 µM (inactive),0.973 µM (active),1.48 µM (inactive),0.796 µM (active),2.18 µM (inactive),0.973 µM (active),0.966 µM (active),1.07 µM (active),0.923 µM (active),0.871 µM (active),0.838 µM (active)
COc1ccc(/C=C(/c2ccc(OC)cc2)c2c(Cl)cc(Cl)c(/C(=C\c3ccc(OC)cc3)c3ccc(OC)cc3)c2/N=N/c2ccccc2)cc1,98.2 µM (inactive),> 100 µM (inactive),> 100 µM (inactive),> 100 µM (inactive),> 100 µM (inactive),> 100 µM (inactive),> 100 µM (inactive),> 100 µM (inactive),45.1 µM (inactive),> 100 µM (inactive),> 100 µM (inactive),> 100 µM (inactive),> 100 µM (inactive),> 100 µM (inactive),> 100 µM (inactive),> 100 µM (inactive),> 100 µM (inactive),> 100 µM (inactive),> 100 µM (inactive),> 100 µM (inactive)
CCOC(=O)c1cccc(NC(=O)CI)c1,2.07 µM (inactive),1.75 µM (inactive),0.381 µM (active),1.76 µM (inactive),1.93 µM (inactive),2.24 µM (inactive),1.07 µM (active),0.313 µM (active),0.191 µM (active),1.67 µM (inactive),1.31 µM (inactive),1.2 µM (inactive),0.5 µM (active),1.14 µM (inactive),0.721 µM (active),1.36 µM (inactive),0.871 µM (active),0.507 µM (active),0.575 µM (active),0.189 µM (active)
O=C1Nc2ccccc2C1(O)Cc1ccccn1 (stereo not given),> 100 µM (inactive),> 100 µM (inactive),> 100 µM (inactive),> 100 µM (inactive),> 100 µM (inactive),> 100 µM (inactive),> 100 µM (inactive),> 100 µM (inactive),> 100 µM (inactive),> 100 µM (inactive),> 100 µM (inactive),> 100 µM (inactive),> 100 µM (inactive),> 100 µM (inactive),> 100 µM (inactive),> 100 µM (inactive),> 100 µM (inactive),> 100 µM (inactive),> 100 µM (inactive),> 100 µM (inactive)
O=P(Oc1ccccc1)(Oc1ccccc1)Oc1c[nH]c2ccccc12,14.1 µM (inactive),11.1 µM (inactive),17 µM (inactive),36.6 µM (inactive),0.296 µM (active),1.95 µM (inactive),1.57 µM (inactive),6.07 µM (inactive),10.7 µM (inactive),19.4 µM (inactive),11.4 µM (inactive),12.8 µM (inactive),3.13 µM (inactive),0.847 µM (active),0.103 µM (active),13.7 µM (inactive),5.47 µM (inactive),11.3 µM (inactive),8.97 µM (inactive),5.33 µM (inactive)
